Counter-ions that a name gives are not always drawn. Like-named read-outs stand apart in the source and are kept apart here.
Test system: TNF-α induced IL-6
Assay: TNF-α-induced IL-6 production determined by IL-6 ELISA
Assay type: cell-based
Conditions: for activity at 10 µM / inhibition at 10 µM: Homo sapiens; for % IL6 production compare to TNF stimulation of IL6 (100%), HAEC, IL6, @ 5 uM: compound 5 uM (bracketed value); for % IL6 production compare to TNF stimulation of IL6 (100%), Compds tested @ 10 μM HAEC, IL6: Table 7, 10 μM compound; for Inflammation Data (result in words): concentration not given
Procedure: Human aortic endothelial cells (HAEC, Clonetics) were cultured according to manufacturer in growth medium (Clonetics): basal medium containing human epidermal growth factor, hydrocortisone, vascular endothelial growth factor, heparin binding growth factor-B, long R3-insulin-like growth factor-1, ascorbic acid, gentamicin/amphotericin and 5% FBS. These cell were allowed to reach at least 90% confluency before subjected to experimental treatments. […] Tumor necrosis factor α was from R&D Systems.
All treatments, compound-added and controls were carried out in serum free media containing 0.2% albumin. Media from all conditions were collected and used for IL-6 ELISA.
IL-6 ELISA was carried out using human IL-6 DuoSet ELISA development kit as described by manufacturer (R&D Systems). Mouse anti-human Il-6 was used as the capture antibody (2 ug/ml) and biotinylated goat anti-human IL-6 (200 ng/ml) was used as the detection antibody. Culture media were incubated with capture antibody (in 96 well) for 2 h at room temperature. Wells were washed three times with wash buffer (0.05% tween-20 in phosphate buffered saline (PBS) pH 7.4) followed by incubation with detection antibody for 2 h at room temperature. Following three washes wells were incubated with Streptavidin-HRP for 20 min. Color development was read at 450 nm in a Microplate reader.

[1] = 24 h, read-out: Inhibition of TNF-induced IL6 production
[2] = 24 h, Table 5, first part, class = % of control IL6 production, read-out: Inhibition of TNF-induced IL6 production
[3] = 24 h, Table 5, second part, column 1, class = % of control IL6 production, read-out: Inhibition of TNF-induced IL6, production
[4] = 10 uM compound, TNF stimulation = 100%
[5] = 24 h, read-out: Inhibition of TNF-induced IL6 production, Table 7, first part
[6] = 24 h, read-out: Inhibition of TNF-induced IL6 production, Table 7, second part, column 1
[7] = 24 h, Table 7, first part, read-out: Inhibition of TNF-induced IL6 production

CCN1CCCC1CNc1nc(Nc2ccc(OC)c(F)c2)nc(NC2CCCCCC2)n1 (stereo not drawn) [Compound 95, N^2-cycloheptyl-N^4-[(1-ethyl-2-pyrrolidinyl)methyl]-N^6-(3-fluoro-4-methoxyphenyl)-1,3,5-triazine-2,4,6-triamine]
activity at 10 µM (24 h, read-out: Inhibition of TNF-induced IL6, production): 0 to 25% | activity at 10 µM [1]: 0 to 25%

COc1ccc(Nc2nc(NCCN3CCCCC3)nc(NC3CCCCCC3)n2)cc1F [Compound 96, N^2-cycloheptyl-N^4-(3-fluoro-4-methoxyphenyl)-N^6-[2-(1-piperidinyl)ethyl]-1,3,5-triazine-2,4,6-triamine]
activity at 10 µM [2]: 0 to 25%

COc1ccc(Nc2nc(NCCCN3CCCC3=O)nc(NC3CCCCCC3)n2)cc1F [Compound 99, 1-[3-({4-(cycloheptylamino)-6-[(3-fluoro-4-methoxyphenyl)amino]-1,3,5-triazin-2-yl}amino)propyl]-2-pyrrolidinone]
activity at 10 µM [2]: 25 to 50% | activity at 10 µM [3]: 0 to 25%

COc1ccc(Nc2nc(NCCCn3ccnc3)nc(NC3CCCCCC3)n2)cc1F [Compound 100, N^2-cycloheptyl-N^4-(3-fluoro-4-methoxyphenyl)-N^6-[3-(1H-imidazol-1-yl)propyl]-1,3,5-triazine-2,4,6-triamine]
activity at 10 µM [3]: 0 to 25%

COc1ccc(Nc2nc(NCCCCCO)nc(N(C)C3CCN(C)CC3)n2)cc1Cl [Compound 108, 5-{4-(3-Chloro-4-methoxy-phenylamino)-6-[methyl-(1-methyl-piperidin-4-yl)-amino]-[1,3,5]triazin-2-ylamino}-pentan-1-ol]
activity at 10 µM (24 h, read-out: % IL6 production compare to TNF stimulation of IL6 (100%), Compds tested @ 10 uM HAEC, IL6): 25% | activity at 10 µM [1]: 25 to 50%

COc1ccc(Nc2nc(Cl)nc(NC3CCCCCC3)n2)cc1F [Compound 127, 6-Chloro-N-cycloheheptyl-N′-(3-fluoro-4-methoxy-phenyl)-[1,3,5]triazine-2,4-diamine]
activity at 10 µM [2]: 25 to 50%

CCN1CCC[C@H]1CNc1nc(NCC2CCCCC2)nc(Nc2ccc(OC)c(F)c2)n1 [Compound 141, N^2-cyclohexylmethyl-N^4-((S)-1-ethyl-pyrrolidin-2-ylmethyl)-N^6-(3-fluoro-4-methoxyphenyl)-1,3,5-triazine-2,4,6-triamine]
% IL6 production compare to TNF stimulation of IL6 (100%), Compds tested @ 10 uM HAEC, IL6 [4]: 23.44% | activity at 10 µM [2]: 0 to 25%

CCN1CCC[C@@H]1CNc1nc(NCC2CCCCC2)nc(Nc2ccc(OC)c(F)c2)n1 [Compound 142, N^2-cyclohexylmethyl-N^4-((R)-1-ethyl-pyrrolidin-2-ylmethyl)-N^6-(3-fluoro-4-methoxyphenyl)-1,3,5-triazine-2,4,6-triamine]
% IL6 production compare to TNF stimulation of IL6 (100%), Compds tested @ 10 uM HAEC, IL6 [4]: 21.62% | activity at 10 µM [2]: 0 to 25%

CCN1CCC[C@H]1CNc1nc(NC2CCCCCC2)nc(N(CC#N)c2ccccc2)n1 [Compound 143, ({4-cycloheptylamino-6-[((S)-1-ethyl-pyrrolidin-2-ylmethyl)-amino]-1,3,5-triazin-2-yl}-phenyl-amino)-acetonitrile]
% IL6 production compare to TNF stimulation of IL6 (100%), Compds tested @ 10 uM HAEC, IL6 [4]: 18.88% | activity at 10 µM [2]: 0 to 25%

CCN1CCC[C@@H]1CNc1nc(NC2CCCCCC2)nc(N(CC#N)c2ccccc2)n1 [Compound 144, ({4-cycloheptylamino-6-[((R)-1-ethyl-pyrrolidin-2-ylmethyl)-amino]-1,3,5-triazin-2-yl}-phenyl-amino)-acetonitrile]
activity at 10 µM [2]: 0 to 25%

COc1ccc(Nc2nc(NC3CC3)nc(NC3CC3)n2)cc1F [Compound 157, N,N′-dicyclopropyl-N″-(3-fluoro-4-methoxy-phenyl)-1,3,5-triazine-2,4,6-triamine]
% IL6 production compare to TNF stimulation of IL6 (100%), Compds tested @ 10 uM HAEC, IL6 [4]: 60.48% | activity at 10 µM [2]: 50 to 75%

COc1ccc(Nc2nc(NC3CCCCCC3)nc(N(C)C3CCN(C)CC3)n2)cc1F [Compound 168, N^2-cycloheptyl-N^4-(3-fluoro-4-methoxy-phenyl)-N^6-methyl-N^6-(1-methyl-piperidin-4-yl)-1,3,5-triazine-2,4,6-triamine citrate salt]
% IL6 production compare to TNF stimulation of IL6 (100%), HAEC, IL6, @ 5 uM (TNF stimulated, citrate salt): 40% | % IL6 production compare to TNF stimulation of IL6 (100%), Compds tested @ 10 uM HAEC, IL6 (TNF stimulated, compound 10 uM): total cell death

COc1ccc(Nc2nc(NC3CCCCCC3)nc(N(C)C3CCN(C)CC3)n2)cc1F [Compound 169, N^2-cycloheptyl-N^4-(3-fluoro-4-methoxy-phenyl)-N^6-methyl-N^6-(1-methyl-piperidin-4-yl)-1,3,5-triazine-2,4,6-triamine succinate salt]
% IL6 production compare to TNF stimulation of IL6 (100%), HAEC, IL6, @ 5 uM (TNF stimulated, succinate salt): 45%

COc1ccc(Nc2nc(NC3CCCCCC3)nc(N(C)C3CCN(C)CC3)n2)cc1F [Compound 171, N-Cycloheptyl-N′-(3-fluoro-4-methoxy-phenyl)-N″-methyl-N″-(1-methyl-piperidin-4-yl)-[1,3,5]tri-azine-2,4,6-triamine]
inhibition at 10 µM [5]: 85 to 100% | inhibition at 10 µM [6]: 65 to 85% | % IL6 production compare to TNF stimulation of IL6 (100%), Compds tested @ 10 μM HAEC, IL6 (TNF stimulation = 100%): 21%

CN1CCC(N(C)c2nc(Nc3ccc4ccccc4c3)nc(NC3CCCCCC3)n2)CC1 [Compound 172, N-Cycloheptyl-N′-methyl-N′-(1-methyl-piperidin-4-yl)-N″-naphthalen-2-yl-[1,3,5]tri-azine-2,4,6-triamine]
inhibition at 10 µM [5]: 85 to 100% | inhibition at 10 µM [6]: 65 to 85% | % IL6 production compare to TNF stimulation of IL6 (100%), Compds tested @ 10 μM HAEC, IL6 (TNF stimulation = 100%): 18%

COc1ccc(Nc2nc(N3CCOCC3)nc(N3CCN(Cc4ccccc4)CC3)n2)cc1 [Compound 173, [4-(4-Benzyl-piperazin-1-yl)-6-morpholin-4-yl-[1,3,5]tri-azin-2-yl]-(4-methoxy-phenyl)-amine]
inhibition at 10 µM [7]: 65 to 85%

c1ccc2cc(Nc3nc(NC4CCCCCC4)nc(N4CCOCC4)n3)ccc2c1 [Compound 174, N-Cycloheptyl-6-morpholin-4-yl-N′-naph-thalen-2-yl-[1,3,5]triazine-2,4-diamine]
inhibition at 10 µM [7]: 85 to 100%

COc1ccc(Nc2nc(NC3CCCCCC3)nc(N3CCOCC3)n2)cc1F [Compound 175, N-Cycloheptyl-N′-(3-fluoro-4-methoxy-phenyl)-6-morpholin-4-yl-[1,3,5]triazine-2,4-di-amine]
inhibition at 10 µM [7]: 85 to 100%

c1ccc(Nc2nc(NC3CCCCCC3)nc(N3CCOCC3)n2)cc1 [Compound 176, N-Cycloheptyl-6-morpholin-4-yl-N′-phenyl-[1,3,5]tri-azine-2,4-diamine]
inhibition at 10 µM [7]: 85 to 100%

COc1ccc(Nc2nc(NC3CCCCCC3)nc(N3CCOCC3)n2)cc1 [Compound 177, N-Cycloheptyl-N′-(4-methoxy-phenyl)-6-mor-pholin-4-yl-[1,3,5]triazine-2,4-diamine]
inhibition at 10 µM [7]: 85 to 100% | inhibition at 10 µM (24 h, Table 7, second part, column 1, read-out: Inhibition of TNF-induced IL6 production): 65 to 85%

COc1ccc(Nc2nc(NC3CCCCCC3)nc(N(C)Cc3ccccc3)n2)cc1 [Compound 178, N-Benzyl-N′-cycloheptyl-N″-(4-methoxy-phenyl)-N-methyl-[1,3,5]triazine-2,4,6-tri-amine]
inhibition at 10 µM [7]: 65 to 85%

CN1CCC(N(C)c2nc(NCCC3OCCO3)nc(Nc3ccc4ccccc4c3)n2)CC1 [Compound 179, N-(2-[1,3]Dioxolan-2-yl-ethyl)-N′-methyl-N′-(1-meth-yl-piperidin-4-yl)-N″-naphthalen-2-yl-[1,3,5]tri-azine-2,4,6-triamine]
inhibition at 10 µM [5]: 65 to 85% | inhibition at 10 µM [6]: 50 to 65%

COc1ccc(Nc2nc(NC3CCCCCC3)nc(OC(C)C)n2)cc1Cl [drawing 1598]
inhibition at 10 µM (10 uM, read-out: Inflammation Data, inhibition at 10 uM): < 25%

COc1ccc(Nc2nc(NC3CCCCCC3)nc(N3CCSCC3)n2)cc1Cl [drawing 1604]
Inflammation Data (result in words): Not Active

COc1ccc(Nc2nc(NC3CCCCCC3)nc(Oc3ccccc3F)n2)cc1Cl [drawing 1605]
Inflammation Data (result in words): Not Active

Source: US7332489B2, “Methods and compositions of novel triazine compounds” (Reddy US Therapeutics, Inc., priority 2003, dated 2008)
